Assay results as given in patent US12692248B2, “Solid state forms of (S)-N-(3-(2-(((R)-1-hydroxypropan-2-yl)amino)-6-morpholinopyridin-4-yl)-4-methylphenyl)-3-(2,2,2-trifluoroethyl)pyrrolidine-1-carboxamide and salts thereof” (PIERRE FABRE MEDICAMENT, priority 2021, dated 2026).
Converted amounts (≈) assume the structure as drawn. Read-outs that look alike come from different tables or passages of the source.

Key:
Format in all cases: physicochemical
[1] = Stability at 60° C. and 40° C. at 75% relative humidity for 9 days (UPLC purity, XRPD); conditions: for Purity −3 d: 3 days; for Purity −9 d: 9 days; for XRPD: crystal form check
Method: Compound 1 and Compound 2 were evaluated for stability at 60° C. and 40° C. at 75% relative humidity for 9 days. At 0, 3, and 9 days, the samples were dissolved with diluent to prepare a solution for purity analysis by UPLC. Solid samples were also analyzed by XRPD to check the crystal form.

[2] = Comparison dissolution trials in water and biorelevant media; conditions: for solubility at 0.5 h: read-out: Solubility (mg/mL) 0.5 h; for solubility at 2 h: read-out: Solubility (mg/mL) 2 h; for solubility at 24 h: read-out: Solubility (mg/mL) 24 h
Method: Comparison dissolution trials were performed on Compounds 1 and 2. About 20 mg of each sample was weighed into a sample vial and then 4 mL of media was added to make a suspension. All suspensions were shaken at 37° C. with a rate of 200 rpm. […] He pH of the filtrate was measured, and the filter cake was analyzed by XRPD. […] In biorelevant dissolution media FaSSIF and FeSSIF, the solubility of the Compound 1 and Compound 2 were similar.

[3] = Solubility of Compound 1 in solvents
Method: Compound 1 is insoluble in n-heptane and water (<1 mg/mL) and soluble (>100 mg/mL) in methanol, ethanol, acetone, tetrahydrofuran, methyl ethyl ketone, ethyl acetate, acetonitrile, isobutanol, isopropyl alcohol and isopropyl acetate. Compound 1 has a solubility of about 60 mg/mL in methyl t-butyl ether.

[4] = Dynamic Vapor Sorption (DVS); conditions: for water uptake at 80% RH: 80% relative humidity
Method: Dynamic Vapor Sorption (DVS) Moisture sorption/desorption data was collected on a DVS Intrinsic PLUS (SMS, UK). The sample was placed into a tared sample chamber and automatically weighed. The sample was dried at 40° C./0%0 RH until the dm/dt was less than 0.00200 and cooled to 25° C. [table]

[5] = Slurry experiments of amorphous hydrochloride; conditions: one day, XRPD
Method: An amorphous solid state form of (S)—N-(3-(2-(((R)-1-hydroxypropan-2-yl)amino)-6-morpholinopyridin-4-yl)-4-methylphenyl)-3-(2,2,2-trifluoroethyl)pyrrolidine-1-carboxamide hydrochloride is attainable. Amorphous (S)—N-(3-(2-(((R)-1-hydroxypropan-2-yl)amino)-6-morpholinopyridin-4-yl)-4-methylphenyl)-3-(2,2,2-trifluoroethyl)pyrrolidine-1-carboxamide hydrochloride was formed by rapid evaporation of 15 mg of Compound 2 dissolved in 0.5 mL of methanol. The solid was confirmed to be amorphous by XRPD. Slurry of amorphous (S)—N-(3-(2-(((R)-1-hydroxypropan-2-yl)amino)-6-morpholinopyridin-4-yl)-4-methylphenyl)-3-(2,2,2-trifluoroethyl)pyrrolidine-1-carboxamide hydrochloride in 0.5 mL of the solvents in Table 13 were prepared. Each suspension was stirred for one day at 50° C. and at RT. Each suspension was filtered and analyzed by XRPD. In each experiment, conversion from amorphous (S)—N-(3-(2-(((R)-1-hydroxypropan-2-yl)amino)-6-morpholinopyridin-4-yl)-4-methylphenyl)-3-(2,2,2-trifluoroethyl)pyrrolidine-1-carboxamide hydrochloride to crystalline Compound 2 was observed.

[6] = simulated gastric fluid, thermodynamic from solid, SGF, 37° C.
[7] = thermodynamic from solid, FaSSIF, 37° C.
[8] = thermodynamic from solid, FeSSIF, 37° C.
[9] = thermodynamic from solid, Water, 37° C.

Cc1ccc(NC(=O)N2CC[C@@H](CC(F)(F)F)C2)cc1-c1cc(N[C@H](C)CO)nc(N2CCOCC2)c1 [Compound 1, (S)—N-(3-(2-(((R)-1-hydroxypropan-2-yl)amino)-6-morpholinopyridin-4-yl)-4-methylphenyl)-3-(2,2,2-trifluoroethyl)pyrrolidine-1-carboxamide]
Purity −0 d (Area %) ([1]; 0 days (initial), UPLC): 99.43 Area %
Purity −3 d ([1]; 40° C./75% RH, UPLC): 99.42 Area %
Purity −9 d ([1]; 40° C./75% RH, UPLC): 99.40 Area %
XRPD ([1]; 40° C./75% RH): No change
Purity −3 d ([1]; 60° C., UPLC): 99.39 Area %
Purity −9 d ([1]; 60° C., UPLC): 99.42 Area %
XRPD ([1]; 60° C.): No change
solid form conversion ([2]; FaSSGF, filter cake by XRPD): converted to Compound 2
solubility of Compound 1 and Compound 2 compared ([2]; FaSSIF and FeSSIF): similar
pH of the filtrate ([2]; Water medium): (pH 6.4)
solubility at 0.5 h [2, 6]: 0.48 mg/mL (≈ 920 µM)
solubility at 2 h [2, 6]: 0.35 mg/mL (≈ 671 µM)
solubility at 24 h [2, 6]: 0.83 mg/mL (≈ 1590 µM)
solubility at 0.5 h [2, 7]: 0.024 mg/mL (≈ 46 µM)
solubility at 2 h [2, 7]: 0.022 mg/mL (≈ 42.2 µM)
solubility at 24 h [2, 7]: 0.018 mg/mL (≈ 34.5 µM)
solubility at 0.5 h [2, 8]: 0.15 mg/mL (≈ 288 µM)
solubility at 2 h [2, 8]: 0.17 mg/mL (≈ 326 µM)
solubility at 24 h [2, 8]: 0.15 mg/mL (≈ 288 µM)
solubility at 0.5 h [2, 9]: 0.004 mg/mL (≈ 7.67 µM)
solubility at 2 h [2, 9]: 0.004 mg/mL (≈ 7.67 µM)
solubility at 24 h [2, 9]: 0.009 mg/mL (≈ 17.3 µM)
solubility ([2]; thermodynamic from solid, water, 37° C.): < 9 µg/mL
solubility ([3]; acetone, organic solvent or mixture): > 100000 µg/mL
solubility ([3]; acetonitrile, organic solvent or mixture): > 100000 µg/mL
solubility ([3]; ethanol, organic solvent or mixture): > 100000 µg/mL
solubility ([3]; ethyl acetate, organic solvent or mixture): > 100000 µg/mL
solubility ([3]; isobutanol, organic solvent or mixture): > 100000 µg/mL
solubility ([3]; isopropyl acetate, organic solvent or mixture): > 100000 µg/mL
solubility ([3]; isopropyl alcohol, organic solvent or mixture): > 100000 µg/mL
solubility ([3]; methanol, organic solvent or mixture): > 100000 µg/mL
solubility ([3]; methyl ethyl ketone, organic solvent or mixture): > 100000 µg/mL
solubility ([3]; methyl t-butyl ether, organic solvent or mixture): ~60000 µg/mL (≈ 115000 µM)
solubility ([3]; n-heptane, organic solvent or mixture): < 1000 µg/mL
solubility ([3]; tetrahydrofuran, organic solvent or mixture): > 100000 µg/mL
solubility ([3]; water): < 1000 µg/mL
hygroscopicity ([4]; DVS): slightly hygroscopic
water uptake at 80% RH ([4]; DVS, 25° C.): 2%
solid form after DVS testing ([4]; after DVS testing): remained amorphous

Br.Cc1ccc(NC(=O)N2CC[C@@H](CC(F)(F)F)C2)cc1-c1cc(N[C@H](C)CO)nc(N2CCOCC2)c1 [Compound 3, (S)—N-(3-(2-(((R)-1-hydroxypropan-2-yl)amino)-6-morpholinopyridin-4-yl)-4-methylphenyl)-3-(2,2,2-trifluoroethyl)pyrrolidine-1-carboxamide hydrobromide]
hygroscopicity ([4]; DVS): slightly hydroscopic
water uptake at 80% RH ([4]; DVS, 25° C.): 0.27%
water uptake at 90% relative humidity ([4]; DVS, 25° C., 90% relative humidity): 0.45%

Cc1ccc(NC(=O)N2CC[C@@H](CC(F)(F)F)C2)cc1-c1cc(N[C@H](C)CO)nc(N2CCOCC2)c1.Cl [amorphous Compound 2, (S)—N-(3-(2-(((R)-1-hydroxypropan-2-yl)amino)-6-morpholinopyridin-4-yl)-4-methylphenyl)-3-(2,2,2-trifluoroethyl)pyrrolidine-1-carboxamide hydrochloride]
Resulting Solid State Form ([5]; slurry in Acetone, 50° C.): Form I
Resulting Solid State Form ([5]; slurry in Acetone, RT): Form I
Resulting Solid State Form ([5]; slurry in Ethanol, 50° C.): Form I
Resulting Solid State Form ([5]; slurry in Ethanol, RT): Form I
Resulting Solid State Form ([5]; slurry in Ethyl acetate, 50° C.): Form I
Resulting Solid State Form ([5]; slurry in Ethyl acetate, RT): Form I
Resulting Solid State Form ([5]; slurry in Water, 50° C.): Form I
Resulting Solid State Form ([5]; slurry in Water, RT): Form I
Resulting Solid State Form ([5]; slurry in n-Heptane, 50° C.): Form I
Resulting Solid State Form ([5]; slurry in n-Heptane, RT): Form I
